Test results published in ChEMBL document CHEMBL1201862, “PubChem BioAssay data set” (2004).
Active and inactive are the calls of the source.

Legend:
cells [1] = assay type: functional, cell-based
cells [2] = assay type: functional, cell-based; remark: listed apart in the source
[3] = microbe, parasite or virus in culture; assay type: functional; details: Mycobacterium tuberculosis
[4] = biological target: T1, Rac GTPase-activating protein 1 (Homo sapiens, UniProt Q9H0H5); experiment: blockers of MgcRacGAP-driven Rac1 GTP hydrolysis – biochemical, ADP Hunter fluorescence, primary and confirmatory, confirmation (AID 624330); assay type: functional
T1 sequence (Q9H0H5 whole entry): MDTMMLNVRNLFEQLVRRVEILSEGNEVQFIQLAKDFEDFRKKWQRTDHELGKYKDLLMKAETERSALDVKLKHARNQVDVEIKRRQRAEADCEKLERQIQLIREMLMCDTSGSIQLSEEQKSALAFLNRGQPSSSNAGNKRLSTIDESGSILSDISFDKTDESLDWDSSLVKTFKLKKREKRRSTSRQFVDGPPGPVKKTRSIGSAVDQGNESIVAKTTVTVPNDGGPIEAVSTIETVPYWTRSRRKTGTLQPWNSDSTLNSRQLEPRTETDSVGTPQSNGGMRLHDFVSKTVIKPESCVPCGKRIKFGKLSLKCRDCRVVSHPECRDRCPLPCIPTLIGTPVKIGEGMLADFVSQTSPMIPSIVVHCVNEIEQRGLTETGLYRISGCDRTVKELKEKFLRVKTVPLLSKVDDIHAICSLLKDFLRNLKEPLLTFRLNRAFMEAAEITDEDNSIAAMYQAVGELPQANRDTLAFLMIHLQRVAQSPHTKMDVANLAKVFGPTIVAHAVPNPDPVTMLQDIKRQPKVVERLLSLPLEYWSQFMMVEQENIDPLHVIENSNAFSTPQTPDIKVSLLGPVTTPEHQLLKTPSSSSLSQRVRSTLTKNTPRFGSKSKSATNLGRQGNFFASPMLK

[5] = biological target: FAD-linked sulfhydryl oxidase ALR (Homo sapiens, UniProt P55789); experiment: ALR-catalysed DTT oxidation blockers – biochemical, H2O2 detection, luminescence, cherry-pick, dose response (AID 493248)
Protein skinhead-1 = biological target: T2, Protein skinhead-1 (Caenorhabditis elegans, UniProt P34707); assay type: functional
T2 sequence (P34707 whole entry): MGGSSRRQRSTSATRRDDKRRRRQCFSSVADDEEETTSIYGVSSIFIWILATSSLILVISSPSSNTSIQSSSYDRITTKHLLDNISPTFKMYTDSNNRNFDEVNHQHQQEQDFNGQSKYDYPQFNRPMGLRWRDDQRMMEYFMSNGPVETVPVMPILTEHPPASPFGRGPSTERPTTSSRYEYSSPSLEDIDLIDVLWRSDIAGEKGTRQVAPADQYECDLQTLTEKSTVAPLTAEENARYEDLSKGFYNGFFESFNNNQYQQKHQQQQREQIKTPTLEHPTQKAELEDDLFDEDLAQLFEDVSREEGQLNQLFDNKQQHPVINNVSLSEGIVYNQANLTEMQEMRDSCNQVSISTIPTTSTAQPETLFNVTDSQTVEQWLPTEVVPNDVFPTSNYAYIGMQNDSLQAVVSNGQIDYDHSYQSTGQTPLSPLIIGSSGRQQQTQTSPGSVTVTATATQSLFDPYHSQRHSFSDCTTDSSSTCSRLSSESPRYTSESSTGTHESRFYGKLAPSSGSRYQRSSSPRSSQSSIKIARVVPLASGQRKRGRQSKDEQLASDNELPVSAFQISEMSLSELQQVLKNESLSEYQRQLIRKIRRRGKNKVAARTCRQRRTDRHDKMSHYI

Paired box protein Pax-8 = Paired box protein Pax-8 (Homo sapiens, UniProt Q06710); experiment: PAX8 transcriptional activity inhibition in RMG-I – RMG-I cells, luciferase, cherry-pick, dose response (AID 687027); assay type: functional, cell-based;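 note: luciferase reporter driven by Pax8 target thyroperoxidase promoter measured by SteadyGlo luminescence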
[6] = OVCAR-3 cell viability loss – plate reader, dry powder samples, PAX8 inhibitor project, dose response (AID 743044); assay type: functional, cell-based
INS1 = experiment: INS-1E survival protection against cytokine death – cell-based, luminescence, retest, dose response (AID 449756); assay type: functional; details: Rattus norvegicus;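 note: cell death triggered by IL-1 beta plus TNF-alpha plus IFN-gamma mixture; protective hits raise ATP signal compared with cytokine alone wells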
[7] = biological target: T3, High affinity choline transporter 1 (Homo sapiens, UniProt Q9GZV3); experiment: human choline transporter blockers, potency – cell-based, 5-point CRC, membrane potential dye, dose response (AID 504840); assay type: functional
T3 sequence (Q9GZV3 whole entry): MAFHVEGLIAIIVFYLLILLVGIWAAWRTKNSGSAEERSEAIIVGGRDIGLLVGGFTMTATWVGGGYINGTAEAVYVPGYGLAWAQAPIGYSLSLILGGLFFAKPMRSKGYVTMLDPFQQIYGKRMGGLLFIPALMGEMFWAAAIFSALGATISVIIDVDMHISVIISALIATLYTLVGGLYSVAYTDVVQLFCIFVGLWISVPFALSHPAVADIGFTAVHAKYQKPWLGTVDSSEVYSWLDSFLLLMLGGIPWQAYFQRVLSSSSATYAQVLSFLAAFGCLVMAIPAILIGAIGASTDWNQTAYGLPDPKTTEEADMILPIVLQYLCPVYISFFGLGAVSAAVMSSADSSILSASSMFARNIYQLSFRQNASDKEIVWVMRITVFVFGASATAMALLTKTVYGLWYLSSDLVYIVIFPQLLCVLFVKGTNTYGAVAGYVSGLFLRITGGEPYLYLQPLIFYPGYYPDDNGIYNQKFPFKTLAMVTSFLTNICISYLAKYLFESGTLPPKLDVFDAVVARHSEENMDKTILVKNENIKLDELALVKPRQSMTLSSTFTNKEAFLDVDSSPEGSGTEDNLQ

[8] = biological target: T4, Short transient receptor potential channel 4 (Mus musculus, UniProt Q9QUQ5); experiment: calcium entry via TRPC4 opening agents – cell-based, HEK293 TRPC4/mu-opioid, Fluo-4 calcium, dose response (AID 434937); assay type: functional
T4 sequence (Q9QUQ5 whole entry): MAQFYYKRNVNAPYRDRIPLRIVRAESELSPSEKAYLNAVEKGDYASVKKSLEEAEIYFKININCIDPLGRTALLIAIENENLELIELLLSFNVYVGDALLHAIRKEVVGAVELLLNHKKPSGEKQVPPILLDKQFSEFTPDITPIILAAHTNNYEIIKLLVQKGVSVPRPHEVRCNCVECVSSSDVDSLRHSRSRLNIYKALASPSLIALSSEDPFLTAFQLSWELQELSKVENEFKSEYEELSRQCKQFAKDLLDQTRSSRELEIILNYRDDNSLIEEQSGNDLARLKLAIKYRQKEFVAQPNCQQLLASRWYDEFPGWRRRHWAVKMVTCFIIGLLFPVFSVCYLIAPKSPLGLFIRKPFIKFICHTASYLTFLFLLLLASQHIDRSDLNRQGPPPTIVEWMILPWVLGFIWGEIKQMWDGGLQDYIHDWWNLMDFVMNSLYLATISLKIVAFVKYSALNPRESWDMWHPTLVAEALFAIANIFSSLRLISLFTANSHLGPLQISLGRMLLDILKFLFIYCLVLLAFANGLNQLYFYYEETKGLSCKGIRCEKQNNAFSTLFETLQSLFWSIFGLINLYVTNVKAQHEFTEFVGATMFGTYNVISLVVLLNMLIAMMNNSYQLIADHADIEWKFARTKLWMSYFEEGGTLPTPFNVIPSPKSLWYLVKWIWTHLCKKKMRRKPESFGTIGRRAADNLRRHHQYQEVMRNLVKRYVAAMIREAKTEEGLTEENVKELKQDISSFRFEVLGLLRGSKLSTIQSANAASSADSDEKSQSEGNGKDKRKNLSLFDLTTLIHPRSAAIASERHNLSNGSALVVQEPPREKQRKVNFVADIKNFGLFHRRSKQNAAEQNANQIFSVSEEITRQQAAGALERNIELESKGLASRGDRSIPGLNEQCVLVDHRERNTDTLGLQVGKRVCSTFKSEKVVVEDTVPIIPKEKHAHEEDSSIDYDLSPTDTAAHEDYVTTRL

FAD-linked sulfhydryl oxidase ALR, sequence (P55789 whole entry): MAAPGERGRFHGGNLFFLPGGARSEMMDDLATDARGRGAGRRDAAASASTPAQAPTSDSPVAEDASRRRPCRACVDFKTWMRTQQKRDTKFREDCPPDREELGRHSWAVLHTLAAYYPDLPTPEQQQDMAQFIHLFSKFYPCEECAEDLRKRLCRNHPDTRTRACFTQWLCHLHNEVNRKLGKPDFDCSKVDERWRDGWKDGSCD
Paired box protein Pax-8, sequence (Q06710 whole entry): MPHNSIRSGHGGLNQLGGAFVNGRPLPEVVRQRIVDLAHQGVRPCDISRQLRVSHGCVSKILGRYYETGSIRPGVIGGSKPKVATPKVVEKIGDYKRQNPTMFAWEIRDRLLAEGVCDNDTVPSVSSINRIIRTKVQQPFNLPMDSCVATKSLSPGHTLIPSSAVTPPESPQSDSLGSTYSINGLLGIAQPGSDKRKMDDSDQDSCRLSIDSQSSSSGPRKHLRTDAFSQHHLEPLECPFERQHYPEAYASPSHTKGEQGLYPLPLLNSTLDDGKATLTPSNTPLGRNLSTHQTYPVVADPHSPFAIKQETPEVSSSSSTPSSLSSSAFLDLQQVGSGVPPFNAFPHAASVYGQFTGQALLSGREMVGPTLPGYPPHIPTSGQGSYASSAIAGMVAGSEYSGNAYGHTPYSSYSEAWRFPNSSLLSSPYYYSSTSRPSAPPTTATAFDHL

What does the source list for `O=C(NC1=NCCS1)c1cccc(NC(=O)c2ccco2)c1`?
EC50 (cells [1]): > 350 µM (not active); EC50 (cells [2]): > 350 µM (not active)

Which CC50 [3] does the source give for `N#C/C=C\Oc1ccc(Cl)cc1N` here?
Its CC50 is > 40 µM (active).

What about the IC50 [4] of the same compound?
Its IC50 is 218 µM (active).

Which EC50 (cells [1]) does the source give for `Cc1ccc(Oc2ncc(CN3CC(C)OC(C)C3)s2)cc1` (stereo not given) here?
Its EC50 is > 350 µM (not active).

What about the EC50 (cells [2]) of the same compound?
The EC50 was > 350 µM (not active).

With `Cc1occc1C(=O)NCCCCc1ccccc1` as the compound, how does the AC50 [5] read?
The AC50 was 0.488 µM (active).

For `Fc1ccccc1CSc1ccc(-c2ccco2)nn1`, which IC50 (Protein skinhead-1) is on record?
Its IC50 is 64.6 µM (inactive).

For `C[C@@H]1CN([C@H](C)CO)C(=O)c2cccc(NC(=O)Nc3cccc4ccccc34)c2O[C@H]1CN(C)C(=O)Nc1ccc(C(F)(F)F)cc1`, which AC50 (Paired box protein Pax-8) is on record?
Its AC50 is 14.6 µM (active).

And the AC50 [6]?
Its AC50 is 64.2 µM (active).

Which results are given for `O=C(N/N=C\c1c(O)ccc2ccccc12)c1ccc(Cn2cccn2)o1`?
EC50 (cells [1]): 82 µM (active); EC50 (cells [2]): > 350 µM (not active); AC50 (INS1): 1.23 µM (active)

For `c1ccc(-c2noc(CSc3nc4ccccc4o3)n2)cc1`, which IC50 (Protein skinhead-1) is on record?
Its IC50 is 75.7 µM (inactive).

Which IC50 [7] does the source give for `CC#CCN(CC#CC)S(=O)(=O)c1ccc(-n2cnnn2)c(OC)c1` here?
The IC50 was 3.16 µM (active).

For `CCn1c(SCc2nc(-c3ccccc3)no2)nnc1-c1ccco1`, which IC50 [7] is on record?
Its IC50 is 13.6 µM (active).

With `Cc1cccc(/C=N/n2c(S)nnc2-c2ccccc2)c1O` as the compound, how does the AC50 [5] read?
Its AC50 is 3.82 µM (active).

For `COc1cc(C(=O)c2ccccc2)c(OC)cc1C(=O)Nc1ccc(O)cc1`, which AC50 [5] is on record?
Its AC50 is 0.039 µM (active).

With `Cc1cc(C)c(NC(=O)c2ccc(CN3CCc4ccccc4C3)cc2)c(C)c1` as the compound, how does the IC50 [7] read?
The IC50 was 12.9 µM (active).

With `Clc1cc(Cl)cc(C2=NC(Cc3ccccc3)CO2)c1` (stereo not given) as the compound, how does the EC50 [8] read?
The EC50 was 5.31 µM (active).

What does the source list for `CC1(C)CC(NC(=O)CCC2CCCC2)CC(C)(C)N1`?
EC50 (cells [1]): > 350 µM (not active); EC50 (cells [2]): > 350 µM (not active)

With `Cc1ccc(NC(=S)N(Cc2cccs2)Cc2cc3cccc(C)c3nc2O)cc1` as the compound, how does the EC50 (cells [1]) read?
Its EC50 is > 350 µM (not active).

And the EC50 (cells [2])?
The EC50 was > 350 µM (not active).

Which IC50 [7] does the source give for `Cc1cccc(C)c1NC(=O)c1ccc(CN2CCc3ccccc3C2)cc1` here?
The IC50 was 18.2 µM (active).
